Data taken from ChEMBL document CHEMBL5380814, “Targeting Receptor-Interacting Protein Kinase 1 by Novel Benzothiazole Derivatives: Treatment of Acute Lung Injury through the Necroptosis Pathway” (J Med Chem, 2023).
Activity calls are given as the source filed them. No cut-off for these calls is given here.

Key:
[1] = tested on: HT-29; test: Anti-necroptotic activity in human HT-29 cells assessed as inhibition of human TNFalpha/Smac mimetic/Z-VAD-FMK induced necroptosis preincubated with compound followed by TSZ stimulation for 12 hrs; format: functional, cell-based
[2] = tested on: HT-29; test: Cytotoxicity against human HT-29 cells incubated for 16 to 24 hrs measured by cell-titre glo luminescent cell viability assay; format: functional; conditions: time 16-24 hrs
[3] = molecular target: T1, Receptor-interacting serine/threonine-protein kinase 1 (Homo sapiens, UniProt Q13546); test: Binding affinity to human wildtype full length RIPK1 (M1 to K305 residues) expressed in bacterial expression system assessed as dissociation constant by kinome scan kd select based qPCR analysis
T1 sequence (Q13546 whole entry): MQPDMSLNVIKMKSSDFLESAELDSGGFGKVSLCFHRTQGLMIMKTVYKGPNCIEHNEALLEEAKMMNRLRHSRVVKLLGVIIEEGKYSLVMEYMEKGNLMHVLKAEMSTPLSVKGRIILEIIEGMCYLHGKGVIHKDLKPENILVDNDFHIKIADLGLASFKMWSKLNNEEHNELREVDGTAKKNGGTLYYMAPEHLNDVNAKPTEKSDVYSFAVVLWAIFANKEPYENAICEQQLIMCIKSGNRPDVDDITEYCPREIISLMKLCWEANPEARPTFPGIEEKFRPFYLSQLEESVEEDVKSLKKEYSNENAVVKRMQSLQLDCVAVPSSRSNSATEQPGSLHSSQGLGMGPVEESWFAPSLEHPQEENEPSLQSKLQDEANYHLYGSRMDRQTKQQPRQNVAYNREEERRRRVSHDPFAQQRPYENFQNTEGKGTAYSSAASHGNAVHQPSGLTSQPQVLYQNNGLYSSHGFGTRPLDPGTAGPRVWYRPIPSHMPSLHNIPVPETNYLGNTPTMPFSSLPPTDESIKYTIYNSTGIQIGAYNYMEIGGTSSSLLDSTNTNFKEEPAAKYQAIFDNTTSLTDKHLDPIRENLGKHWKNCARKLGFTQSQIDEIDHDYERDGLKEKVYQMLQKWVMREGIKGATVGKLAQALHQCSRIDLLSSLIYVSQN

[4] = tested on: HT-29; test: Anti-necroptotic activity in human HT-29 cells assessed as inhibition of human TNFalpha/Smac mimetic/Z-VAD-FMK induced necroptosis preincubated with compound upto 50 nM for 16 to 24 hrs followed by TSZ stimulation for 12 hrs measured by cell-titre glo luminescent cell viability assay; format: functional, cell-based; conditions: time 28-36 hrs
[5] = tested on: U-937; test: Anti-necroptotic activity in human U-937 cells assessed as protection against human TNFalpha/Smac mimetic/Z-VAD-FMK induced necroptosis preincubated with compound upto 50 nM for 16 to 24 hrs followed by TSZ stimulation for 12 hrs measured by cell-titre glo luminescent cell viability assay; format: functional, cell-based; conditions: time 28-36 hrs
[6] = tested on: U-937; test: Anti-necroptotic activity in human U-937 cells assessed as protection against human TNFalpha/cycloheximide/Z-VAD-FMK induced necroptosis preincubated with compound at 1 to 7 uM for 16 to 24 hrs followed by TCZ stimulation for 12 hrs measured by cell-titre glo luminescent cell viability assay; format: functional, cell-based; conditions: dose 1-7 µM, time 28-36 hrs
[7] = molecular target: Receptor-interacting serine/threonine-protein kinase 3 (Homo sapiens, UniProt Q9Y572); test: Inhibition of RIPK3 phosphorylation in TSZ-induced human HT-29 cells assessed as blocking of TSZ-induced necrosome formation at 0.5 uM pretreated with compound for 6 hrs followed by TSZ stimulation for 6 hrs measured by Western analysis; format: cell-based; conditions: time 12.0 hrs
[8] = molecular target: T2, Mixed lineage kinase domain-like protein (Homo sapiens) (UniProt Q8NB16); test: Inhibition of MLKLphosphorylation in TSZ-induced human HT-29 cells assessed as blocking of TSZ-induced necrosome formation upto 1 uM pretreated with compound for 6 hrs followed by TSZ stimulation for 6 hrs measured by Western analysis; format: cell-based; conditions: time 12.0 hrs
T2 sequence (whole entry): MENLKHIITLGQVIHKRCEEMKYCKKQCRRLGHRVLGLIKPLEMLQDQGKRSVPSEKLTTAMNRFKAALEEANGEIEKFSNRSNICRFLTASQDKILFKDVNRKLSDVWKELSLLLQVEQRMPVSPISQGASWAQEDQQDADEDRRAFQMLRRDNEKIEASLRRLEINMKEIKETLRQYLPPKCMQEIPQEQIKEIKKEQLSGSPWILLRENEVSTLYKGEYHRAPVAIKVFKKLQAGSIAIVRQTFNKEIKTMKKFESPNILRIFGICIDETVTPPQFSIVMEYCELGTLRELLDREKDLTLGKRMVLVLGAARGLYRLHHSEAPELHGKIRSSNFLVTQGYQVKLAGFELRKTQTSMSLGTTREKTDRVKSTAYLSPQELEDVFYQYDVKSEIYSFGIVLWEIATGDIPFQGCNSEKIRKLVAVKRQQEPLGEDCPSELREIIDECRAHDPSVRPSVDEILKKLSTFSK

[9] = molecular target: T2, Mixed lineage kinase domain-like protein (Homo sapiens); test: Inhibition of MLKL phosphorylation in TSZ-induced human HT-29 cells assessed as blocking of TSZ-induced necrosome formation at 1 uM pretreated with compound for 0 to 6 hrs followed by TSZ stimulation for 6 hrs measured by Western analysis; format: cell-based; conditions: time 6-12 hrs
[10] = tested on: HT-29; test: Anti-necroptotic activity in TSZ induced human HT-29 cells assessed as inhibition of necrosome formation preincubated with compound at 1 uM for 6 hrs followed by TSZ stimulation for 6 hrs measured by cell-titre glo luminescent cell viability assay; format: functional, cell-based; conditions: time 12.0 hrs
[11] = tested on: Mus musculus; test: In vivo anti-necrotptic activity in mTNFalpha induced C57BL/6J SIRS mouse model assessed as survival rate pretreated at 5 mg/kg, po for 1 hr followed by mTNFalpha/Z-VAD-FMK administration measured after 40 mins relative to control; format: functional; conditions: time 100 min, 1.667 h
[12] = tested on: Mus musculus; test: In vivo anti-necrotptic activity in mTNFalpha induced C57BL/6J SIRS mouse model assessed as survival rate pretreated at 10 mg/kg, po for 1 hr followed by mTNFalpha/Z-VAD-FMK administration measured after 40 mins relative to control; format: functional; conditions: time 100 min, 1.667 h
[13] = tested on: Mus musculus; test: In vivo anti-necrotptic activity in mTNFalpha induced C57BL/6J SIRS mouse model assessed as reduction in serum IL-6 level pretreated at 5 to 20 mg/kg, po for 1 hr followed by mTNFalpha/Z-VAD-FMK administration measured after 3 hrs by ELISA analysis; format: functional, organism-based; conditions: dose 5-20 mg/kg, time 4.0 hrs
[14] = tested on: Mus musculus; test: In vivo anti-inflammatory activity in NNK induced induced C57BL/6J ALI mouse model assessed as less bleeding point in lung pretreated at 25 to 100 mg/kg, ip for 1 hr followed by NNK administration by HE staining analysis; format: functional, organism-based; conditions: dose 25-100 mg/kg
[15] = tested on: Mus musculus; test: In vivo anti-inflammatory activity in NNK induced induced C57BL/6J ALI mouse model assessed as decrease in dry lung weight pretreated at 25 to 100 mg/kg, ip for 1 hr followed by NNK administration relative to disease model; format: functional, organism-based; conditions: dose 25-100 mg/kg
[16] = tested on: Mus musculus; test: In vivo anti-inflammatory activity in NNK induced induced C57BL/6J ALI mouse model assessed as lung injury score pretreated at 50 mg/kg, ip for 1 hr followed by NNK administration relative to disease model (reference value: 5.7 +/- 0.5); format: functional
[17] = tested on: Mus musculus; test: In vivo anti-necrotoptic activity in NNK induced induced C57BL/6J ALI mouse model assessed as reduction in RIPK1 phosphorylation pretreated at 100 mg/kg, ip for 1 hr followed by NNK administration; format: functional; design: scale not given: the % may be the effect or the level left

Sequence of Receptor-interacting serine/threonine-protein kinase 3 (Q9Y572 whole entry, looked up, the tested form may be a part): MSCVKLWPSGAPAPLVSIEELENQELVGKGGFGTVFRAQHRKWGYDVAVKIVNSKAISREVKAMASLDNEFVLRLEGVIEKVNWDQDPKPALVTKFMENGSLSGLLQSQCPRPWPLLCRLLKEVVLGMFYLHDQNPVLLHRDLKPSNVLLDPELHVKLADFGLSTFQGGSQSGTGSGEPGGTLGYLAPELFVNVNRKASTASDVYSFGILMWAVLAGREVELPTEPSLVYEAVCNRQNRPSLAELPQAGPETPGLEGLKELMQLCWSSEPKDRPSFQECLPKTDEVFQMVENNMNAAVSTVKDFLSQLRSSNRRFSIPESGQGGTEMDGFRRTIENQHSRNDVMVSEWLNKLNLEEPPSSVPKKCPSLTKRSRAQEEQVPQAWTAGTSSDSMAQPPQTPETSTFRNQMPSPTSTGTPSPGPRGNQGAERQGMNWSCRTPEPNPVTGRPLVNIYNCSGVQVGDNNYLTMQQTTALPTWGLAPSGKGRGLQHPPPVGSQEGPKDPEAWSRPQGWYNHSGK

CCS(=O)(=O)NC1CCC(C(=O)Nc2nc3cc(F)c(Oc4ccc(F)c(NC(=O)Cc5cccc(C(F)(F)F)c5)c4)cc3s2)CC1 (configuration not stated)
Activity [1]: inactive
CC50 [2]: > 100000 nM
Kd [3]: 85 nM
Activity [4]: Dose-Dependent Effect
Activity [5]: inactive
Activity [6]: Active
inhibition [7]: Active
inhibition [8]: Active
inhibition [9]: Active
Activity [10]: Active
Activity [11]: 30%
Activity [12]: 90%
Activity [13]: Active
Activity [14]: Active
Activity [15]: Active
Activity [16]: 3.3
Activity [17]: 100%
